Data set [1] is described as follows: Toxicity statement.
A short description of data set [2]: Fentom method: degradation of deoxyribose by free radicals from xanthine/xanthine oxidase, malondialdehyde measured by colorimetry. Format: biochemical. The note with it: in relation to the control containing no free hydroxyl radical trapper. As to the method:
We used the Fentom method. This method is based on the degradation of deoxyribose by free radicals generated by the xanthine/xanthine oxidase system. This degradation leads to the formation of malondialdehyde which is measured by colorimetry.
In this technique, the trapping of free hydroxyl radicals is translated into a decrease in the formation of malondialdehyde.
N,N′-dibenzylthiourea in solutions of concentration 20, 10 and 5% decreases the production of malondialdehyde by 65, 59 and 51% respectively in relation to the control containing no free hydroxyl radical trapper.

As for `S=C(NCc1ccccc1)NCc1ccccc1` [N,N′-dibenzylthiourea], the toxicity entry in data set [1] was “non-toxic”. Besides, the “decrease in the production of malondialdehyde” value in data set [2] (solution of concentration 5%) stood at 51%; in data set [2] (solution of concentration 10%), 59%; in data set [2] (solution of concentration 20%), 65%.

The record behind these values is US20060167104A1, “Method for extracting a novel compound from the root of a plant of the pentadiplandraceae family and use of N,N'-dibenzylthiourea as a medicine” (priority 2002, published 2006).
